The results in this text go back to patent US20260083704A1, “LXR MODULATORS WITH BICYCLIC CORE MOIETY FOR TREATING DYSLIPIDEMIAS” (OrsoBio, Inc., priority 2022, published 2026).

Structures are written as SMILES. A value given as a limit tells only on which side of the number the result lay.

Data set [1] has as its target T1, GST-LXRβ ligand-binding domain (Homo sapiens, UniProt P55055).
T1 construct: amino acids 156-461; NP009052; made in house; host or cells: E. coli
T1 sequence (P55055 156-460 limits assumed): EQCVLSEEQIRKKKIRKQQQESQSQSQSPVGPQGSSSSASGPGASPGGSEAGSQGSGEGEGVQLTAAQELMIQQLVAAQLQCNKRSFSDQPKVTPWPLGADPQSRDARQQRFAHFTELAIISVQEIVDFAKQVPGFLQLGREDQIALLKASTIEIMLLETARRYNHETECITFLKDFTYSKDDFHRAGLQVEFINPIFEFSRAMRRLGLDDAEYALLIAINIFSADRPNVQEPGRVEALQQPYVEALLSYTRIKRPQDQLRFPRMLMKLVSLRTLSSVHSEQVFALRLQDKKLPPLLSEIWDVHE
Briefly: TR-FRETβ activity assay (NCoA3 coactivator peptide recruitment). To be noted: 1 μM 24(S)-25-epoxycholesterol prestimulation. The class given is biochemical. The method in brief:
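Inverse-agonist format, with LXR prestimulated by 1 μM 24(S)-25-epoxycholesterol in pH 6.8 Tris/HCl, 240 mM KCl, BSA and Triton. Ten concentrations from 50 μM to 0.002 μM were equilibrated 1 h at 4° C with 76 nM GST-LXRβ LBD and 400 nM biotin-NCoA3 peptide. Peptide recruitment detected by 665/615 nm TR-FRET.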

In data set [2] the target is T2, LXRα (Homo sapiens, UniProt Q13133).
T2 sequence (Q13133 1-447): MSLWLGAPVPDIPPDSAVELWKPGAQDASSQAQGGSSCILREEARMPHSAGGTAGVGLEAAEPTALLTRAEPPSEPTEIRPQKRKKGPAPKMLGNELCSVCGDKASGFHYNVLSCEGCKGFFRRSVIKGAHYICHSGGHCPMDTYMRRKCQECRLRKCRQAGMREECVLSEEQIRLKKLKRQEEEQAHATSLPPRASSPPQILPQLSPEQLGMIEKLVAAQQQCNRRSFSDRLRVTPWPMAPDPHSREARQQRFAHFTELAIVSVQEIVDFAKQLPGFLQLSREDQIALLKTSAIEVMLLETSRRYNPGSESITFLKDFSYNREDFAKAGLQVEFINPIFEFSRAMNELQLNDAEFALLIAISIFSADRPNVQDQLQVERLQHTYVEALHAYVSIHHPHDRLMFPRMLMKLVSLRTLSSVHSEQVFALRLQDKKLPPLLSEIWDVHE
The data set is described as follows: LXR Gal4 reporter transient transfection assay (mammalian two-hybrid, HEK293), LXRα. The class given is cell-based. Also noted: expressed in transfected cells; host or cells: HEK293. To be noted: full length (FL) LXRα, HEK293; read-out: FL-M2H Gal4α. The protocol:
LXRα and LXRβ activity status was determined via detection of interaction with coactivator and corepressor proteins in mammalian two-hybrid experiments (M2H). For this, via transient transfection the full length (FL) proteins of LXRα (amino acids 1-447; NP005684; SEQ ID NO:1) or LXRβ-(amino acids 1-461; NP009052; SEQ ID NO:2) or the ligand-binding domains (LBD) of LXRα (amino acids 155-447 SEQ ID NO:3) or LXRβ (amino acids 156-461; SEQ ID NO:4) were expressed from pCMV-AD (Stratagene) as fusions to the transcriptional activation domain of NFkB. As cofactors, domains of either the steroid receptor coactivator 1 (SRC1; amino acids 552-887; SEQ ID NO:5) or of the corepressor NCoR (amino acids 1906-2312; NP006302; SEQ ID NO:6) were expressed as fusions to the DNA binding domain of the yeast transcription factor GAL4 (from pCMV-BD; Stratagene). Interaction was monitored via activation of a coexpressed Firefly Luciferase Reporter gene under control of a promoter containing repetitive GAL4 response elements (vector pFRLuc; Stratagene). Transfection efficiency was controlled via cotransfection of constitutively active pRL-CMV Renilla reniformis luciferase reporter (Promega). HEK293 cells were grown in minimum essential medium (MEM) with 2 mM L-glutamine and Earle's balanced salt solution supplemented with 8.3% fetal bovine serum, 0.1 mM non-essential amino acids, 1 mM sodium pyruvate, at 37° C. in 5% CO2. 3.5×10^4 cells/well were plated in 96-well cell culture plates in growth medium supplemented with 8.3% fetal bovine serum for 16-20 h to ˜90% confluency. For transfection, medium was taken off and LXR and cofactor expressing plasmids as well as the reporter plasmids are added in 30 μL OPTIMEM/well including polyethylene-imine (PEI) as vehicle. Typical amounts of plasmids transfected/well: pCMV-AD-LXR (5 ng), pCMV-BD-cofactor (5 ng), pFR-Luc (100 ng), pRL-CMV (0.5 ng). Compound stocks were prepared in DMSO, prediluted in MEM to a total volume of 120 μL, and added 4 h after addition of the transfection mixture (final vehicle concentration not exceeding 0.2%). Cells were incubated for additional 16 h, lysed for 10 min in 1×Passive Lysis Buffer (Promega) and Firefly and Renilla luciferase activities were measured sequentially in the same cell extract using buffers containing D-luciferine and coelenterazine, respectively. Measurements of luminescence were done in a BMG-luminometer.
The potencies of Compound 21/3 and its analog, Compound pre-6/3, against LXRα and LXRβ were evaluated in biochemical binding assays, cellular mammalian two-hybrid (M2H) interaction assays evaluating nuclear receptor co-repressor (NCOR) recruitment, and cellular reporter assays evaluating transcriptional activity (Table 5).

In data set [3] the target is T3, LXRβ (Homo sapiens, UniProt P55055).
T3 sequence (P55055 1-460): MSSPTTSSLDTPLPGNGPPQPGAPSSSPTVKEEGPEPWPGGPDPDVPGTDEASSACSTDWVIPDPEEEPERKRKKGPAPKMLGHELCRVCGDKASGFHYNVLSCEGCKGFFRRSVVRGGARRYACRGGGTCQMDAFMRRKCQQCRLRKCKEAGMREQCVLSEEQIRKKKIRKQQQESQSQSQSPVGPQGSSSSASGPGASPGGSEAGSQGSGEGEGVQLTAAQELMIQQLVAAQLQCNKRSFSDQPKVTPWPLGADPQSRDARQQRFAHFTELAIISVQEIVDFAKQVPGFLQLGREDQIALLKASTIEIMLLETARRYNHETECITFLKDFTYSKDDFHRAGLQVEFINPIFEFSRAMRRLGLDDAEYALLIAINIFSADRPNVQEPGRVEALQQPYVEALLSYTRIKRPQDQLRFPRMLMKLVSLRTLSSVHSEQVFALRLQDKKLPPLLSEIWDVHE
The data set is described as follows: LXR Gal4 reporter transient transfection assay (mammalian two-hybrid, HEK293), LXRβ. Also noted: LXRβ (amino acids 156-461); expressed in transfected cells; host or cells: HEK293. Format: cell-based. The settings on record: full length (FL) LXRβ, HEK293; read-out: FL-M2H Gal4β. Put shortly: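 Mammalian two-hybrid read-out of LXR–coactivator (SRC1) or corepressor (NCoR) interaction: firefly luciferase under GAL4 response elements, normalised via Renilla co-transfection. LXRα/β full-length or LBD fusions expressed transiently in HEK293; compounds (final DMSO ≤0.2%) given 4 h after transfection for 16 h before lysis.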

A short description of data set [4]: Pharmacokinetics in mice after single oral dosing (blood/plasma and liver exposure). The class given is in vivo. The settings on record: 20 mg/kg single oral dose, time point 4 h. The protocol:
The pharmacokinetics of the compounds was assessed in mice after single dosing and oral administrations. Blood/plasma and liver exposure was measured via LC-MS.
The study design was as follows: • Animals: C57/bl6/J (Janvier) males • Diet: standard rodent chow • Dose: 20 mg/kg • Animal handling: animals were withdrawn from food at least 12 h before administration • Design: single dose oral administration, n=3 animals per group • Sacrifice: at stated time point (4, 12 or 24 h) after administration • Bioanalytics: LC-MS of liver and blood/plasma samples

For the compound `Cc1ccc(S(=O)(=O)n2c(-c3cccc(-c4ccc(C(N)=O)cc4)c3)c(-c3ccsc3C#N)c3cc(F)ccc32)cc1` [6/2], the EC50 is 100 to 1000 nM in data set [1], less than 100 nM in data set [2] and less than 100 nM in data set [3].
As for `Cc1cccc(C#N)c1-c1c(-c2cccc(-c3ccc(C(=O)O)cc3Cl)c2)n(S(=O)(=O)c2ccc(C(F)F)cc2)c2ccc(F)cc12` [11/36], the EC50 in data set [1], in data set [2] and in data set [3] was less than 100 nM each time.
Turning to `N#Cc1cccc(C#N)c1-c1c(-c2cccc(-c3ccc(C(=O)O)cc3)c2)n(S(=O)(=O)c2ccc(C(F)F)cc2)c2ccc(F)cc12` [11/50], the EC50 in data set [1], in data set [2] and in data set [3] was less than 100 nM each time.
Regarding `Cc1cccc(C#N)c1-c1c(-c2cccc(-c3ccc(C(=O)O)cc3Cl)c2)n(S(=O)(=O)c2ccc(C(F)F)cc2)c2ccc(F)cc12` [41/2, 2-chloro-3′-(3-(2-cyano-6-methylphenyl)-1-((4-(difluoro-methyl)phenyl)sulfonyl)-5-fluoro-1H-indol-2-yl)-[1,1′-biphenyl]-4-carboxylic acid], the EC50 in data set [1] and in data set [2] was less than 100 nM each time.
Take `N#Cc1cccc(-c2c(-c3cccc(-c4ccc(C(=O)O)cc4Cl)c3)n(S(=O)(=O)c3ccc(C(F)F)cc3)c3ccc(F)cc23)c1` [C11/48]: the EC50 in data set [1], in data set [2] and in data set [3] was less than 100 nM throughout.
Consider `Cc1ccc(S(=O)(=O)n2c(-c3cccc(-c4ccc(CN(C)C)cc4Cl)c3)c(-c3ccsc3C#N)c3cc(F)ccc32)cc1` [Compound 2], for which the EC50 in data set [1] was 100 to 1000 nM; in data set [2], less than 100 nM; in data set [3], less than 100 nM.
As for `Cc1ccc(S(=O)(=O)n2c(-c3cccc(-c4cncc(S(=O)(=O)CC(=O)O)c4)c3)c(-c3ccsc3C#N)c3ccccc32)cc1` [Compound 5], the EC50 in data set [1] fell in the range of 100 to 1000 nM; in data set [2] it was 1000 to 10000 nM; in data set [3], 1000 to 10000 nM.
For `Cc1ccc(S(=O)(=O)n2c(-c3cccc(-c4ccc(C(=O)NO)cc4)c3)c(-c3ccsc3C#N)c3cc(F)ccc32)cc1` [Compound 6], the EC50 in data set [1] is 100 to 1000 nM; in data set [2] it was less than 100 nM; in data set [3] it was less than 100 nM.
Regarding `Cc1ccc(S(=O)(=O)n2c(-c3cccc(-c4ccc(CN5CCN(C)CC5)cc4)c3)c(-c3ccsc3C#N)c3cc(F)ccc32)cc1` [Compound 8], the figures for the EC50 in data set [1], in data set [2] and in data set [3] were 100 to 1000 nM, 100 to 1000 nM and less than 100 nM, respectively. In addition, the blood/plasma exposure entry in data set [4] is recorded as “B (300 nM to ≤1 μM)”. In data set [4], the liver exposure result is on record as “D (>3 μM)”. Further, the liver/blood ratio result in data set [4] is “B (3 to ≤10)”.
Consider `Cc1ccc(S(=O)(=O)n2c(-c3cccc(-c4ccc(C(=O)NCCS(=O)(=O)O)cc4Cl)c3)c(-c3ccsc3C#N)c3cc(F)ccc32)cc1` [Compound 10], for which the EC50 in data set [1] was 100 to 1000 nM; in data set [2], less than 100 nM; in data set [3], 100 to 1000 nM.
Turning to `Cc1ccc(S(=O)(=O)n2c(-c3cccc(-c4ccc(C(=O)O)cc4Cl)c3)c(-c3ccccc3C#N)c3cc(F)ccc32)cc1` [Compound 11], the EC50 in data set [1], in data set [2] and in data set [3] was less than 100 nM in each case.
As for `Cc1ccc(S(=O)(=O)n2c(-c3cccc(-c4cc(C)c(C(=O)O)cc4Cl)c3)c(-c3ccsc3C#N)c3cc(F)ccc32)cc1` [Compound 12], the figures for the EC50 in data set [1], in data set [2] and in data set [3] were 100 to 1000 nM, less than 100 nM and less than 100 nM, respectively.
With `Cc1ccc(S(=O)(=O)n2c(-c3cccc(-c4cnc(C(=O)O)cc4C)c3)c(-c3ccsc3C#N)c3cc(F)ccc32)cc1` [Compound 36], the EC50 in data set [1] lay within 1000 to 10000 nM; in data set [2], 100 to 1000 nM; in data set [3], 100 to 1000 nM.
On to `Cc1ccc(S(=O)(=O)n2c(-c3cccc(-c4ccc(-c5nnn[nH]5)cc4Cl)c3)c(-c3ccsc3C#N)c3cc(F)ccc32)cc1` [Compound 37], for which the EC50 in data set [1] is 100 to 1000 nM; in data set [2], less than 100 nM; in data set [3], less than 100 nM.
Consider `N#Cc1cccc(C#N)c1-c1c(-c2cccc(-c3ccc(C(=O)O)cc3Cl)c2)n(S(=O)(=O)c2ccc(C(F)F)cc2)c2cc(F)c(O)cc12` [Compound 44], for which the values for the EC50 in data set [1], in data set [2] and in data set [3] were 100 to 1000 nM, less than 100 nM and less than 100 nM, respectively.
